Reference: PubChem BioAssay AID2060492 (Molecular Pharmacology Branch, DTP, NCI, 2025)
One block for each compound: values may come before it.

System: 695427-040-R-J1-PDC complex spheroids, viability percent T/C
Assay: Anticancer human tumor 695427-040-R-J1-PDC patient-derived colon adenocarcinoma cell line growth inhibition [GQUAD]
Details: for IC50: curve of first compound; for viability, T/C: stronger effect = lower value
Description: DNA G-quadruplex Stabilizer Agents in Combinations in Complex Spheroids
A high-throughput screen of multi-cell type tumor spheroids was designed to identify active combinations of DNA G-quadruplex stabilizer agents and targeted small molecules. Complex spheroids include a stromal component modeled by human endothelial cells (HUVEC) and fibroblasts modeled by human mesenchymal stem cells (MSCs). The concentration ranges selected for each drug and investigational agent were based upon clinically achievable concentrations if the clinical Cmax of the agent was known.
Compounds. The drugs and investigational agents: pidnarulex (CX-5461; NSC782164), APTO-253 (NSC789042), BRACO-19 (NSC847499), peposertib (NSC802822), ceralasertib (NSC780249), elimusertib (NSC800525), camonsertib (NSC841442), AZD-1390 (NSC803789), olaparib (NSC753686), talazoparib (NSC767125), ART-558 (NSC835418), sotorasib (NSC818433), MRTX-1133 (NSC836407), SN-38 (NSC673596), topotecan (NSC609699), etoposide (NSC141540), doxorubicin (NSC123127), gemcitabine (NSC613327), 5-fluorouracil (NSC19893), paclitaxel (NSC125973), vemurafenib (NSC761431), panobinostat (NSC761190), R-306465 (JNJ-16241199; NSC773264), adavosertib (NSC754352), TP-3654 (NSC805149), carboplatin (NSC241240), KSQ-4279 (NSC840948), and staurosporine (NSC755774) were obtained from the National Cancer Institute (NCI) Developmental Therapeutics Program Chemical Repository (34). The FDA-approved anticancer drug set is available from the NCI Developmental Therapeutics Program. […] The stock solutions were prepared in dimethyl sulfoxide (DMSO, Sigma-Aldrich, St. Louis, MO, cat. D2650) at 800-fold the tested concentration and stored at -70 degrees C prior to their use. All drugs and investigational agents were tested over a range starting from a high concentration at or near the clinical Cmax and decreasing in half-log increments. If the clinical Cmax for an agent had not been determined, the highest concentration tested was 10 microM.
2.3 Cell Culture. All cells were maintained in an incubator at 37 degrees C and 5% CO2 with 95% humidity. The PDC lines were cultured according to standard operating procedures established by the NCI PDMR. All PDCs were thawed and cultured in Matrigel-coated flasks prepared with a working solution of 1X Ham's F-12 nutrient mix, without supplementation (Invitrogen, cat. 11765054), 100 U/mL penicillin-streptomycin (Invitrogen, cat. 15140122), and 2.5% Matrigel (Corning Inc., cat. 354248) for the first three passages. The 857933-349-R-J2-PDC line was cultured in 6C/Colon 1B media, which includes advanced DMEM/F-12 (Thermo Fisher Scientific, cat. 12634028), 10 mM HEPES (Thermo Fisher Scientific, cat. 15630080), 1X GlutaMAX supplement (Thermo Fisher Scientific, cat. 35050061), 0.1 mg/mL primocin (InvivoGen, cat. ant-pm-2), 10% defined fetal bovine serum, heat inactivated (HyClone Laboratories Inc., cat. SH30070.03HI), 50% L-WRN conditioned media (ATCC, cat. CRL-3276), 1.25 mM N-Acetyl-L-cysteine (Sigma-Aldrich, cat. A9165), 10 mM nicotinamide (Sigma-Aldrich, cat. N0636), 1X B-27 supplement (Thermo Fisher Scientific, cat. 17504044), 1X N-2 supplement (Thermo Fisher Scientific, cat. 17502048), 10 microM Y-27632 dihydrochloride (Tocris Bioscience, cat. 1254), and 50 ng/mL human EGF recombinant protein (Thermo Fisher Scientific, cat. PHG0311). The 485176-168-R4-J1-PDC line was cultured in Panc media, which includes all 6C/Colon 1B media components plus 100 ng/mL human FGF-10 (Thermo Fisher Scientific, cat. 100-26), 500 nM SB-431542 (Selleckchem, cat. S1067), and gastrin (Tocris, cat. 3006).
[…]

[1] = second compound 0.0316 µM, first compound 0.000999 µM
[2] = second compound 0.0316 µM, first compound 0.00316 µM
[3] = second compound 0.0316 µM, first compound 0.00999 µM
[4] = second compound 0.0316 µM, first compound 0.0316 µM
[5] = second compound 0.0316 µM, first compound 0.0999 µM
[6] = second compound 0.0316 µM, first compound 0.316 µM
[7] = second compound 0.1 µM, first compound 0.000999 µM
[8] = second compound 0.1 µM, first compound 0.00316 µM
[9] = second compound 0.1 µM, first compound 0.00999 µM
[10] = second compound 0.1 µM, first compound 0.0316 µM
[11] = second compound 0.1 µM, first compound 0.0999 µM
[12] = second compound 0.1 µM, first compound 0.316 µM
[13] = second compound 0.316 µM, first compound 0.000999 µM
[14] = second compound 0.316 µM, first compound 0.00316 µM
[15] = second compound 0.316 µM, first compound 0.00999 µM
[16] = second compound 0.316 µM, first compound 0.0316 µM
[17] = second compound 0.316 µM, first compound 0.0999 µM
[18] = second compound 0.316 µM, first compound 0.316 µM
[19] = second compound 1 µM, first compound 0.000999 µM
[20] = second compound 1 µM, first compound 0.00316 µM
[21] = second compound 1 µM, first compound 0.00999 µM
[22] = second compound 1 µM, first compound 0.0316 µM
[23] = second compound 1 µM, first compound 0.0999 µM
[24] = second compound 1 µM, first compound 0.316 µM
[25] = second compound 3.16 µM, first compound 0.000999 µM
[26] = second compound 3.16 µM, first compound 0.00316 µM
[27] = second compound 3.16 µM, first compound 0.00999 µM
[28] = second compound 3.16 µM, first compound 0.0316 µM
[29] = second compound 3.16 µM, first compound 0.0999 µM
[30] = second compound 3.16 µM, first compound 0.316 µM
[31] = second compound 10 µM, first compound 0.000999 µM
[32] = second compound 10 µM, first compound 0.00316 µM
[33] = second compound 10 µM, first compound 0.00999 µM
[34] = second compound 10 µM, first compound 0.0316 µM
[35] = second compound 10 µM, first compound 0.0999 µM
[36] = second compound 10 µM, first compound 0.316 µM
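Further: spheroids exposed to compounds for seven days before readout.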

- IC50 (second compound 0.0316 µM): 81.3 nM
- IC50 (second compound 0.1 µM): 49 nM
- IC50 (second compound 0.316 µM): 27.3 nM
- IC50 (second compound 1 µM): 26.1 nM
- IC50 (second compound 3.16 µM): 3.02 nM
- IC50 (second compound 10 µM): < 0.999 nM
Compound: CCc1c2c(nc3ccc(O)cc13)-c1cc3c(c(=O)n1C2)COC(=O)[C@]3(O)CC + Cc1cnc(CNC(=O)c2c(=O)c3ccc(N4CCCN(C)CC4)nc3n3c2sc2ccccc23)cn1
- viability, T/C [1]: 82.6%
- viability, T/C [2]: 75.7%
- viability, T/C [3]: 81.1%
- viability, T/C [4]: 57.9%
- viability, T/C [5]: 50.1%
- viability, T/C [6]: 34.5%
- viability, T/C [7]: 91.4%
- viability, T/C [8]: 68.6%
- viability, T/C [9]: 73.2%
- viability, T/C [10]: 47.5%
- viability, T/C [11]: 47.5%
- viability, T/C [12]: 33.8%
- viability, T/C [13]: 85.3%
- viability, T/C [14]: 57%
- viability, T/C [15]: 63.6%
- viability, T/C [16]: 49.8%
- viability, T/C [17]: 43.2%
- viability, T/C [18]: 31.1%
- viability, T/C [19]: 66.1%
- viability, T/C [20]: 63.6%
- viability, T/C [21]: 53.1%
- viability, T/C [22]: 47.7%
- viability, T/C [23]: 40.4%
- viability, T/C [24]: 19.1%
- viability, T/C [25]: 55.1%
- viability, T/C [26]: 47.3%
- viability, T/C [27]: 44.8%
- viability, T/C [28]: 38.9%
- viability, T/C [29]: 31.2%
- viability, T/C [30]: 7.33%
- viability, T/C [31]: 39.7%
- viability, T/C [32]: 33.7%
- viability, T/C [33]: 40.2%
- viability, T/C [34]: 37.7%
- viability, T/C [35]: 9.89%
- viability, T/C [36]: 0.52%

- IC50 (second compound 0.0316 µM): > 316 nM
- IC50 (second compound 0.1 µM): > 316 nM
- IC50 (second compound 0.316 µM): > 316 nM
- IC50 (second compound 1 µM): > 316 nM
- IC50 (second compound 3.16 µM): > 316 nM
- IC50 (second compound 10 µM): < 0.999 nM
Compound: Cn1ncnc1[C@H]1c2n[nH]c(=O)c3cc(F)cc(c23)N[C@@H]1c1ccc(F)cc1 + Cc1cnc(CNC(=O)c2c(=O)c3ccc(N4CCCN(C)CC4)nc3n3c2sc2ccccc23)cn1
- viability, T/C [1]: 98.9%
- viability, T/C [2]: 84.2%
- viability, T/C [3]: 96.4%
- viability, T/C [4]: 66.4%
- viability, T/C [5]: 86.2%
- viability, T/C [6]: 71.7%
- viability, T/C [7]: 93.5%
- viability, T/C [8]: 101%
- viability, T/C [9]: 87.5%
- viability, T/C [10]: 62.9%
- viability, T/C [11]: 91.8%
- viability, T/C [12]: 60.6%
- viability, T/C [13]: 65.7%
- viability, T/C [14]: 83.5%
- viability, T/C [15]: 88.1%
- viability, T/C [16]: 71.5%
- viability, T/C [17]: 66%
- viability, T/C [18]: 66%
- viability, T/C [19]: 53.7%
- viability, T/C [20]: 53.9%
- viability, T/C [21]: 60.7%
- viability, T/C [22]: 55.9%
- viability, T/C [23]: 82.5%
- viability, T/C [24]: 56.5%
- viability, T/C [25]: 51.6%
- viability, T/C [26]: 48.7%
- viability, T/C [27]: 53%
- viability, T/C [28]: 62.1%
- viability, T/C [29]: 63.3%
- viability, T/C [30]: 46.5%
- viability, T/C [31]: 37.8%
- viability, T/C [32]: 44.7%
- viability, T/C [33]: 58.2%
- viability, T/C [34]: 47.7%
- viability, T/C [35]: 58.5%
- viability, T/C [36]: 40.1%
